Data set [1] deals with A498 and RCC068. As to the kind of experiment: Long-term culture of renal cell carcinoma cell lines in the presence of TKIs. The format is cell-based, human. The following applies: 13 μM sorafenib, 14 d time point, cells harvested after 10 days. How it is done:
The human renal cell carcinoma cell lines A498 and RCC068 were cultured in RPMI medium (5% FCS (Biochrom, Berlin, Germany), 5% HS (PromoCell, Heidelberg, Germany)). […] For each time point 3 flasks of each cell line were prepared by containing either 0.1% DMSO alone as a control, 13 μM sorafenib (8.3 μg/ml sorafenib tosylate)+0.1% DMSO, or 250 nM sunitinib (133 ng/ml sunitinib malate).
A normal medium control sample containing neither DMSO nor TKIs was harvested at 1 h for each cell line.

Data set [2] relates to OVA-001 specific CD8+ T-cells. The format is in vivo, C57BL/6 mice. The following applies: continuous treatment; for OVA-001 specific CD8+ T-cells, mean: OVA-001 immunized; for Immune response towards OVA-001 compared with vehicle treated controls (in words): both sorafenib dosages, high-dose (80 mg/kg bw) sunitinib, 80 mg/kg.
Data set [3] concerns HLA-A*02+ PBMCs (CD4+ and CD8+ effector cells). The note with it: absence of target cells or autologous target cells. On the procedure:
Two fresh buffy coat (HLA-A*02+ and HLA-A*02−) were obtained from the Katharinenhospital Stuttgart. PBMCs were isolated by standard density gradient isolation and incubated overnight in T-cell medium (TCM) for human in vitro priming as in WP03 #4. Ca2+ and Mg2+ free PBS (Cambrex) washed HLA-A*02+ PBMCs were labeled at 1×10^7 cells/ml with 1 μM CFSE (Fluka, Buchs, Germany) at 37° C. for 4 minutes. Labeling was stopped by adding the same volume heat inactivated FCS (Invitrogen) and labeled cells were washed in TCM. Irradiation of target or feeder cells, if indicated, was performed at 33 Gy using a 1000 Elite gammacell (MDS Nordion, Ottawa, Canada). Stock solutions of sorafenib tosylate and sunitinib malate were prepared in DMSO (Merck, Darmstadt, Germany) and frozen aliquoted at −80° C. Mixed lymphocyte reactions were performed by coculturing 2×10^5 CFSE labeled effector plus 2×10^5 irradiated target cells as indicated per well of 96 well round bottom plates in 200 μl TCM in the presence of indicated concentrations of sorafenib, sunitinib or DMSO at 37° C. and 5% CO2 (day 1). On day 4, 100 μl supernatant was removed and 100 μl TCM supplemented with the original concentration of TKIs was added. […] Cells were washed, fixed in PFEA containing 1% formaldehyde (Fluka) and analyzed on a FACSCalibur (BD). […]

The conditions of data set [4]: mouse, in vivo. How it is done:
Female C57BL/6 mice (20-25 g, Harlan Winkelmann GmbH, Borchen, Germany) were used for all experiments described in this section. Animals were kept in the animal facility of the Dept. of Immunology at the University of Tuebingen. Animals were cared for by trained animal keepers and health status of animals was supervised by the veterinaries of the University of Tübingen. Feeding with drug was also performed in part by the local animal keepers after special training. All animals were supplied with water and food ad libitum. The described experiments were performed according to procedure no. IM1/06 approved by the Regierungsprasidium Tuebingen.
A liquid, viscous vehicle composed of 30% (w/v) Cremophor EL (Sigma, Deisenhofen, Germany), 30% (w/v) PEG 400 (Sigma, Deisenhofen, Germany), 10% ethanol p.a., 10% glucose was used. Sunitinib and sorafenib were suspended in vehicle according to the planned dosages in a way that […] body weight had to be applied to all mice, according to approx. 50 μl of suspension. Feasible aliquots were prepared from suspensions and from vehicle and stored until use at −20° C. in the dark. Thawed substance was stored at 4° C. and used within the next three days. Animals were weighed before start of treatment and thereafter weekly. The deduced dosage was applied daily using a 1 ml syringe with gavage into the backward cavity of the mouth of the animal without anesthesia. Drug delivery into blood plasma was controlled as described in example 1.
1) Immunization under continuous treatment with tyrosine kinase inhibitors. Pretreatment phase was two weeks (see FIG. 5A). […]
3) The experimental design was identical to a) Beside negative and positive control groups, groups treated with 60 mg/kg body weight sorafenib, and 20 and 40 mg/kg body weight sunitinib were included (6 mice per group). For spleen cells, CD4, Tregs, CD8 cells, and B cells were assessed, for PBMCs CD4, CD8, B cells and Tregs were analyzed.

Read-outs that look alike come from different tables or passages of the source.

Turning to `CNC(=O)c1cc(Oc2ccc(NC(=O)Nc3ccc(Cl)c(C(F)(F)F)c3)cc2)ccn1` [Sorafenib, 4-(4-{3-[4-Chloro-3-(trifluoromethyl)phenyl]ureido}phenoxy)-N-methylpyrid-ine-2-carboxamide], the “Cell growth in culture” value in data set [1] was “prevented cell growth”. Further, the “OVA-001 specific CD8+ T-cells, mean” value worked out at 0.72% in data set [2] (15 mg/kg bw, n=4) and 1.81% in data set [2] (60 mg/kg bw, n=12). Moreover, the “Immune response towards OVA-001 compared with vehicle treated controls (in words)” value in data set [2] was “reduced specific T-cell responses”; in data set [2] (listed as sorafenib), “reduced immune response”. For the same compound, the “Baseline proliferation of effector cells” value in data set [3] is “did not increase”. In addition, in data set [4], the Toxic side effects entry is on record as “without any observed toxic side effects”.

The values above are taken from US9308244B2, “Combination therapy using active immunotherapy” (immatics Biotechnologies GmbH, priority 2007, dated 2016).
